Our source for the EC50, Papp and efflux ratio values is patent publication US12291529B2, “Heterocyclic GLP-1 agonists” (Gasherbrum Bio, Inc., priority 2023, dated 2025).

For one data set, the target named is GLP-1 Receptor (Homo sapiens, UniProt P43220). Briefly: GLP-1R agonist cAMP stimulation assay (HEK293/GLP1R/CRE-LUC cells, Cisbio cAMP dynamic 2 kit). It is filed as cell-based. The method, boiled down: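 cAMP was measured by HTRF (d2/cryptate, 1 h RT, 665 and 615 nm). Beforehand, compounds in half-log series were incubated 30 min at 37 °C with GLP-1R/CRE-Luc HEK293 cells (1000 per well) in IBMX (0.5 mM)-containing DPBS/BSA. Activity scaled between vehicle and maximal control.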

A short description of data set [1]: Caco-2 permeability / efflux study. It is filed as in vitro ADME. The following applies: human; for Papp at 2 h, 10 μM: Caco-2, pH 7.4, 10 μM, 37° C., pH 7.4, 0.5% BSA, read-out: Caco-2 Perm; for efflux ratio at 2 h, 10 μM: Caco-2, pH 7.4, Caco-2 efflux ratio. The protocol: Incubations with Caco-2 cell monolayers were performed in duplicate in a 96-well Transwell plate. Transport buffer solution (HBSS, 10 mM HEPES, pH 7.4, with 0.5% BSA) containing test article (10 μM), and either the control compounds metoprolol (10 μM), cimetidine (10 μM) and erythromycin (10 μM), was added to appropriate donor wells of the apical or basolateral plate. The transport buffer with DMSO was added to appropriate wells of receiver wells. Following incubation at 37° C. for 2 hours, the cell plates were removed and 50 μL samples from both apical and basolateral sides were transferred into new 96-well plates. Subsequently, 200 μL of acetonitrile containing internal standard was added to all samples to precipitate protein prior to analysis by UPLC-MS/MS. Lucifer yellow was used as a marker to confirm the integrity of the cell monolayers after 2 hours incubation.

[2] abbreviates: Table 3, HEK293/GLP1R/CRE-LUC cells, 30 min.

pEC50: −log10 of the molar value.

Chain of GLP-1 Receptor (P43220 24-463, species assumed): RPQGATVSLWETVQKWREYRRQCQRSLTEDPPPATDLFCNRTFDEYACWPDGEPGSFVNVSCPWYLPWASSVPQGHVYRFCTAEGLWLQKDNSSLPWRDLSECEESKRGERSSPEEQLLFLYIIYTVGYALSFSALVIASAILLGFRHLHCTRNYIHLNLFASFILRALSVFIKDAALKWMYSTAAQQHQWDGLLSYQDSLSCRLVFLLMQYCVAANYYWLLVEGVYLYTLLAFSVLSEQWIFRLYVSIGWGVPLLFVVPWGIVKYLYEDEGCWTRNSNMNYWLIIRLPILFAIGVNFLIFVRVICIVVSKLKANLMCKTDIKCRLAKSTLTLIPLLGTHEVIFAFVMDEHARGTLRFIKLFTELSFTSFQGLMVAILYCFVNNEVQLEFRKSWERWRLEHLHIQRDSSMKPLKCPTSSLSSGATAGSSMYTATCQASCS

For `CCS(=O)(=NC)c1ccc(-n2ccn(-c3c4c(nn3-c3cc(C)c(F)c(C)c3)CCN(C(=O)c3cc5cc(C6CCOCC6)ccc5n3[C@@]3(c5noc(=O)[nH]5)C[C@@H]3C)[C@H]4C)c2=O)c(Cl)c1` (single isomer, unassigned) [Compound 151], the pEC50 at GLP-1 Receptor (setting [2]) and at GLP-1 Receptor (Table 4) was 10.14 throughout. Also, the Papp at 2 h, 10 μM in data set [1] stood at 0.3 ×10⁻⁶ cm/s. Further, the efflux ratio at 2 h, 10 μM in data set [1] came out at 36.8.
`Cc1cc(-n2nc3c(c2-n2ccn(-c4ccc(S(=N)(=O)C5CCC5)cc4F)c2=O)[C@H](C)N(C(=O)c2cc4cc(C5CCOCC5)ccc4n2[C@@]2(c4noc(=O)[nH]4)C[C@@H]2C)CC3)cc(C)c1F` (single isomer, unassigned) [Compound 168]: the pEC50 on GLP-1 Receptor (setting [2]) and on GLP-1 Receptor (Table 4) was 10.96 throughout. Also, in data set [1], the Papp at 2 h, 10 μM is 0.21 ×10⁻⁶ cm/s. The efflux ratio at 2 h, 10 μM in data set [1] came to 50.
`Cc1cc(-n2nc3c(c2-n2ccn(-c4ccc(S(=N)(=O)C5CCC5)cc4F)c2=O)[C@H](C)N(C(=O)c2cc4cc([C@H]5CCOC(C)(C)C5)ccc4n2[C@@]2(c4noc(=O)[nH]4)C[C@@H]2C)CC3)cc(C)c1F` (single isomer, unassigned) [Compound 183]: the pEC50 at GLP-1 Receptor (setting [2]) is 12.00. For the same compound, the negative logarithm of the EC50 (pEC50) on GLP-1 Receptor (Table 4) is 10.96. Further, in data set [1], the Papp at 2 h, 10 μM was 0.19 ×10⁻⁶ cm/s and the efflux ratio at 2 h, 10 μM worked out at 45.
Take `CN=S(=O)(c1ccc(-n2ccn(-c3c4c(nn3-c3cc(C)c(F)c(C)c3)CCN(C(=O)c3cc5cc([C@H]6CCOC(C)(C)C6)ccc5n3[C@@]3(c5noc(=O)[nH]5)C[C@@H]3C)[C@H]4C)c2=O)cc1NC)C1CC1` (single isomer, unassigned) [Compound 218]: the figures for the pEC50 at GLP-1 Receptor (setting [2]) and on GLP-1 Receptor (Table 4) were 10.08 and 10.23, respectively. Besides, in data set [1], the Papp at 2 h, 10 μM was determined as 0.09 ×10⁻⁶ cm/s. Further, the efflux ratio at 2 h, 10 μM in data set [1] was 20.7.
Turning to `CNc1cc(-n2ccn(-c3c4c(nn3-c3cc(C)c(F)c(C)c3)CCN(C(=O)c3cc5cc(C6CCOCC6)ccc5n3[C@@]3(c5nc(=O)o[nH]5)C[C@@H]3C)[C@H]4C)c2=O)ccc1S(C)(=N)=O` (stereo partly drawn) [Compound 105, 3-[(1S,2S)-1-(2-{[(S)-2-(4-fluoro-3,5-xylyl)-3-{3-[4-(iminomethyloxothio)-3-(methylamino)phenyl]-2-oxo-1,3-dihydro-1-imidazolyl}-4-methyl-4,5,6,7-tetrahydro-2H-1,2,5-triazainden-5-yl]carbonyl}-5-(tetrahydro-2H-pyran-4-yl)-1-indolyl)-2-methylcyclopropyl]-1,2,4-oxadiazol-5(4H)-one], the pEC50 on GLP-1 Receptor (setting [2]) is 11.05.
On the same count and under the same terms, the figure for `Cc1cc(-n2nc3c(c2-n2ccn(-c4ccc(S(C)(=N)=O)cc4)c2=O)[C@H](C)N(C(=O)c2cc4cc(N5CCOCC5)ccc4n2C2(c4noc(=O)[nH]4)CC2)CC3)cc(C)c1F` (some centres unmarked) [Compound 106] is 9.17.
The same measure, in the same setting: the figure for `Cc1cc(-n2nc3c(c2-n2ccn(-c4ccc(S(C)(=N)=O)cc4)c2=O)[C@H](C)N(C(=O)c2cc4cc(C5CCOCC5)ccn4c2C2(c4noc(=O)[nH]4)CC2)CC3)cc(C)c1F` (some centres unmarked) [Compound 107] is 9.34.
Take `Cc1cc(-n2nc3c(c2-n2ccn(-c4ccc5c(c4)CCN=S5(C)=O)c2=O)[C@H](C)N(C(=O)c2cc4cc(C5CCOCC5)ccc4n2[C@@]2(c4noc(=O)[nH]4)C[C@@H]2C)CC3)cc(C)c1F` (stereo partly drawn) [Compound 108, 6-{3-[(4S)-2-(4-fluoro-3,5-dimethylphenyl)-5-({1-[(1S,2S)-2-methyl-1-(5-oxo-4H-1,2,4-oxadiazol-3-yl)cyclopropyl]-5-(3,4,5,6-tetrahydro-2H-pyran-4-yl)indol-2-yl}carbonyl)-4-methyl-4,5,6,7-tetrahydropyrazolo[4,3-c]pyridin-3-yl]-2-oxoimidazol-1-yl}-1-methyl-3,4-dihydro-1λ^6-benzo[2,1-e][1,2]thiazin-1-one]: the pEC50 on GLP-1 Receptor (setting [2]) was 10.89.
Still for that read-out and setting: then `Cc1cc(-n2nc3c(c2-n2ccn(-c4ccc(S(C)(=N)=O)cc4)c2=O)[C@H](C)N(C(=O)c2cn4cc(C5CCOCC5)ccc4c2C2(c4noc(=O)[nH]4)CC2)CC3)cc(C)c1F` (some centres unmarked) [Compound 109], with 9.57; and `Cc1cc(-n2nc3c(c2-n2ccn(-c4ccc(S(C)(=N)=O)cc4)c2=O)[C@H](C)N(C(=O)c2cc4cc(C5CCOCC5)ccc4n2[C@@]2(c4noc(=O)[nH]4)C[C@@H]2C)CC3)cc(C)c1F` (some centres unmarked) [Compound 110], with 10.55; and `Cc1cc(-n2nc3c(c2-n2ccn(-c4ccc(CS(C)(=N)=O)cc4)c2=O)[C@H](C)N(C(=O)c2cc4cc(C5CCOCC5)ccc4n2[C@@]2(c4noc(=O)[nH]4)C[C@@H]2C)CC3)cc(C)c1F` (stereo partly drawn) [Compound 111, 3-[(1S,2S)-1-(2-{[(4S)-3-[3-(4-{[azanylidene(methyl)(oxo)-λ^6-sulfanyl]methyl}phenyl)-2-oxoimidazol-1-yl]-2-(4-fluoro-3,5-dimethylphenyl)-4-methyl-4,5,6,7-tetrahydropyrazolo[4,3-c]pyridin-5-yl]carbonyl}-5-(3,4,5,6-tetrahydro-2H-pyran-4-yl)indol-1-yl)-2-methylcyclopropyl]-4H,5H-1,2,4-oxadiazol-5-one], with 10.85.
On the same count and under the same terms, the figure for `C[C@H]1c2c(nn(-c3ccc(F)c(C4CC4)c3)c2-n2ccn(-c3ccc(S(C)(=N)=O)cc3)c2=O)CCN1C(=O)c1cc2cc(C3CCOCC3)ccc2n1[C@@]1(c2noc(=O)[nH]2)C[C@@H]1C` (some centres unmarked) [Compound 118] is 10.40; for `Cc1cc(-n2nc3c(c2-n2ccn(-c4ccc(S(C)(=N)=O)cc4)c2=O)[C@H](C)N(C(=O)c2cc4cc(C5CCOCC5)ccc4n2-c2cccc(S(=O)(=O)Nc4ncccn4)c2)CC3)cc(C)c1F` (some centres unmarked) [Compound 119] it is 9.00.
Take `COc1cc(-n2ccn(-c3c4c(nn3-c3cc(C)c(F)c(C)c3)CCN(C(=O)c3cc5cc(C6CCOCC6)ccc5n3[C@@]3(c5noc(=O)[nH]5)C[C@@H]3C)[C@H]4C)c2=O)ccc1S(C)(=N)=O` (stereo partly drawn) [Compound 123, 3-[(1S,2S)-1-(2-{[(S)-2-(4-fluoro-3,5-xylyl)-3-{3-[4-(iminomethyloxothio)-3-methoxyphenyl]-2-oxo-1,3-dihydro-1-imidazolyl}-4-methyl-4,5,6,7-tetrahydro-2H-1,2,5-triazainden-5-yl]carbonyl}-5-(tetrahydro-2H-pyran-4-yl)-1-indolyl)-2-methylcyclopropyl]-1,2,4-oxadiazol-5(4H)-one]: the pEC50 on GLP-1 Receptor (setting [2]) was 10.15.
Still for that read-out and setting: then `Cc1cc(-n2ccn(-c3c4c(nn3-c3cc(C)c(F)c(C)c3)CCN(C(=O)c3cc5cc(C6CCOCC6)ccc5n3[C@@]3(c5noc(=O)[nH]5)C[C@@H]3C)[C@H]4C)c2=O)ccc1S(C)(=N)=O` (some centres unmarked) [Compound 124], with 11.00; and `CCS(=O)(=NC)c1ccc(-n2ccn(-c3c4c(nn3-c3cc(C)c(F)c(C)c3)CCN(C(=O)c3cc5cc(C6CCOCC6)ccc5n3CC3CCCO3)[C@H]4C)c2=O)cc1` (some centres unmarked) [Compound 163], with 7.70; and `Cc1cc(-n2nc3c(c2-n2ccn(-c4ccc5c(c4)CS(C)(=O)=N5)c2=O)[C@H](C)N(C(=O)c2cc4cc(C5CCOCC5)ccc4n2[C@@]2(c4noc(=O)[nH]4)C[C@@H]2C)CC3)cc(C)c1F` (some centres unmarked) [Compound 225], with 10.55.
Same read-out and setting: then `Cc1cc(-n2nc3c(c2-n2ccn(-c4ccc(OC5CCS(=N)(=O)CC5)cc4)c2=O)[C@H](C)N(C(=O)c2cc4cc(C5CCOCC5)ccc4n2[C@@]2(c4noc(=O)[nH]4)C[C@@H]2C)CC3)cc(C)c1F` (stereo partly drawn) [Compound 226, 3-((1S,2S)-1-(2-((S)-2-(4-fluoro-3,5-dimethylphenyl)-3-(3-(4-((1-imino-1-oxidohexahydro-1λ^6-thiopyran-4-yl)oxy)phenyl)-2-oxo-2,3-dihydro-1H-imidazol-1-yl)-4-methyl-4,5,6,7-tetrahydro-2H-pyrazolo[4,3-c]pyridine-5-carbonyl)-5-(tetrahydro-2H-pyran-4-yl)-1H-indol-1-yl)-2-methylcyclopropyl)-1,2,4-oxadiazol-5(4H)-one], with 10.60.
The same measure, in the same setting: then `Cc1cc(-n2nc3c(c2-n2ccn(-c4ccc5c(c4)CS(C)(=O)=N5)c2=O)[C@H](C)N(C(=O)c2cc4cc([C@H]5CCOC(C)(C)C5)ccc4n2[C@@]2(c4noc(=O)[nH]4)C[C@@H]2C)CC3)cc(C)c1F` (stereo partly drawn) [Compound 227, 5-{3-[(4S)-2-(4-fluoro-3,5-dimethylphenyl)-5-({5-[(4S)-2,2-dimethyl-3,4,5,6-tetrahydro-2H-pyran-4-yl]-1-[(1S,2S)-2-methyl-1-(5-oxo-4H-1,2,4-oxadiazol-3-yl)cyclopropyl]indol-2-yl}carbonyl)-4-methyl-4,5,6,7-tetrahydropyrazolo[4,3-c]pyridin-3-yl]-2-oxoimidazol-1-yl}-2-methyl-3H-2λ^6-benzo[c][1,2]thiazol-2-one], with 10.82.
In turn, `CN=S1(=O)CCC(Oc2ccc(-n3ccn(-c4c5c(nn4-c4cc(C)c(F)c(C)c4)CCN(C(=O)c4cc6cc([C@H]7CCOC(C)(C)C7)ccc6n4[C@@]4(c6noc(=O)[nH]6)C[C@@H]4C)[C@H]5C)c3=O)cc2C2CC2)CC1` (some centres unmarked) [Compound 237] gave a pEC50 at GLP-1 Receptor (setting [2]) of 10.15.
